As a reminder, the Km is the concentration of substrate that gives half-maximal velocity.

The values below come from article PMC10683023, “Targeting Glial Cells by Organic Anion-Transporting Polypeptide 1C1 (OATP1C1)-Utilizing L-Thyroxine-Derived Prodrugs” (Journal of Medicinal Chemistry, 2023).

This test has as its system mouse primary astrocytes. Nature of the test: Concentration-dependent cellular uptake into mouse primary astrocytes. The class given is cell-based. The following applies: 5–400 μM, 30 min, 37 °C. The method, then: The mouse primary astrocytes were isolated from neonatal pups (P0-2) of wild-type mice (C57BL/6JOlaHsd) as previously described, in compliance with the European Commission Directive 2010/63/EU and approved by the Institutional Animal Care and Use Committee of the University of Eastern Finland (Animal Usage Plan numbers: EKS-006-2019).[37] Neonatal pups were decapitated, and their brains were collected in an ice-cold HBSS buffer. After tissue dissociation and washing, cells were plated on poly-L-lysine-coated flasks and cultured in DMEM supplemented with FBS, L-glutamine, and penicillin/streptomycin (50 μg/mL) for 24 h. Debris and dead cells were removed by DPBS rinsing. After 7 days, microglial cells were removed, and the remaining astrocytic monolayer was collected by trypsinization using 0.05% trypsin-ethylenediaminetetraacetic acid (EDTA) (Gibco), pelleted, and stored at −80 °C for subsequent analysis. For the cell uptake experiments, the astrocytes were seeded on 24-well plates with a density of 10^4 cells/well 3 days before the experiments.
After removal of the culture medium, U-87MG human glioma cells and mouse primary astrocytes were carefully washed with prewarmed Hank’s balanced salt solution (HBSS) containing 125.0 mM NaCl (or choline chloride in Na^+ free conditions), 4.8 mM KCl, 1.2 mM MgSO4, 1.2 mM KH2PO4, 1.3 mM CaCl2, 5.6 mM glucose, and 25.0 mM 4-(2-hydroxyethyl)piperazine-1-ethanesulfonic acid (HEPES) with the pH adjusted to either 7.4 or pH 8.5 with 1 M NaOH (or KOH in sodium-free conditions). In the experiments at lower pH (4.5–6.5), 25.0 mM HEPES was replaced by 2-(N-morpholino) ethanesulfonic acid (MES), and the pH was adjusted to 4.5, 5.5, and 6.5 by 1.0 M NaOH. Preincubation was done with 500 μL of prewarmed HBSS at 37 °C for 10 min before adding the substrate for the uptake experiments. The functionality of OATP1C1 in human glioma U-87MG cells was studied with a known substrate (L-thyroxine, T4) and of oatp1a4, 1a5, and 1a6 in mouse primary astrocytes with [6,7-^3H(N)]-estrone-3-sulfate (ES) by incubating the uptake solution (250 μL in HBSS) consisting of 5–400 μM of the substrate at 37 °C for 30 min. After incubation, the uptake was stopped by adding 500 μL of ice-cold HBSS, and the cells were washed two times with ice-cold HBSS (2 × 500 μL). The cells were then lysed with 500 μL of 0.1 M NaOH (60 min), the lysate was neutralized, and the protein was precipitated with acidic acetonitrile (ACN with 4.8% formic acid). The supernatants were analyzed by the high-performance liquid chromatography (HPLC) methods described below (T4) or by using a liquid scintillation counter (MicroBeta2 counter, PerkinElmer, Waltham, MA) (ES). The concentrations of T4 and ES were calculated from the spiked standard curve and normalized with the protein concentrations. The protein concentrations on each plate were determined as a mean of three samples by Bio-Rad Protein Assay, based on the Bradford dye-binding method, using bovine serum albumin (BSA) as a standard protein and measuring the absorbance (595 nm) by a multiplate reader (EnVision, PerkinElmer, Inc., Waltham, MA). The OATP-mediated uptake was confirmed by changing the pH of the uptake buffer in the absence of sodium ions, and in the case of OATP1C1 in human U-87MG cells, the uptake of T4 (100 μM) was studied in the presence of competing OATP1C1-ligands, diclofenac and flufenamic acid (100 μM), and in the case of oatp1a4/1a5/1a6 in mouse primary astrocytes, the uptake of ES (100 μM) was studied in the presence of competing OATO1A2-ligand, naringin (100 μM).
Cellular uptake of prodrugs 1–8 was studied as described for L-thyroxine above by adding compounds at a concentration of 5–400 μM in prewarmed HBSS buffer (250 μL) on the cell layer and incubating at 37 °C for 30 min (uptake was linear with all compounds up to 30 min). Subsequently, the cells were washed three times with ice-cold HBSS and lysed with 500 μL of 0.1 M NaOH (60 min). […]

Take `CC(C(=O)Oc1c(I)cc(Oc2c(I)cc(C[C@H](N)C(=O)O)cc2I)cc1I)c1cccc(C(=O)c2ccccc2)c1` (mixture of isomers) [Prodrug 2, (2S)-2-Amino-3-(4-(4-((2-(3-benzoylphenyl)propanoyl)oxy)-3,5-diiodophenoxy)-3,5-diiodophenyl)propanoic acid]: the Km was 123 ± 21 µM and the “Vmax, cellular uptake, astrocytes” value is 5.5 ± 0.4 nmol/min/mg.
The matching figures for `CC(C(=O)Oc1c(I)cc(C[C@H](N)C(=O)O)cc1I)c1ccc(-c2ccccc2)c(F)c1` (mixture of isomers) [Prodrug 7, (2S)-2-Amino-3-(4-((2-(2-fluoro-[1,1′-biphenyl]-4-yl)propanoyl)oxy)-3,5-diiodophenyl)propanoic acid]: 360 ± 61 µM and 10.3 ± 1.1 nmol/min/mg.
The matching figures for `CC(C(=O)Oc1c(I)cc(Oc2c(I)cc(C[C@H](N)C(=O)O)cc2I)cc1I)c1ccc(-c2ccccc2)c(F)c1` (mixture of isomers) [Prodrug 8, (2S)-2-Amino-3-(4-(4-((2-(2-fluoro-[1,1′-biphenyl]-4-yl)propanoyl)oxy)-3,5-diiodophenoxy)-3,5-diiodophenyl)propanoic acid]: 58 ± 20 µM and 3.0 ± 0.4 nmol/min/mg.
For `N[C@@H](Cc1cc(I)c(OC(=O)c2ccccc2O)c(I)c1)C(=O)O` [Prodrug 3, (S)-2-Amino-3-(4-((2-hydroxybenzoyl)oxy)-3,5-diiodophenyl)propanoic acid] the same measures were 685 ± 97 µM and 13.0 ± 1.3 nmol/min/mg.
Take `N[C@@H](Cc1cc(I)c(Oc2cc(I)c(OC(=O)c3ccccc3O)c(I)c2)c(I)c1)C(=O)O` [Prodrug 4, (S)-2-Amino-3-(4-(4-((2-hydroxybenzoyl)oxy)-3,5-diiodophenoxy)-3,5-diiodophenyl)propanoic acid]: the Km is 86 ± 32 µM and the “Vmax, cellular uptake, astrocytes” value amounted to 5.5 ± 0.8 nmol/min/mg.
